Bounds are passed on as bounds.

This passage reports IC50 results from patent US20250304567A1, “PYRROLIDIONE DERIVATIVES AS INHIBITORS OF NF KAPPA B INDUCING KINASE” (priority 2022, published 2025).

For test [1], the target named is Recombinant Human NF-kappaB-Inducing Kinase (NIK/MAP3K14) (Homo sapiens, UniProt Q99558). Kind of test: Inhibition of auto-phosphorylation of recombinant human NIK/MAP3K14 activity (AlphaScreen). The note with it: 5 μM ATP, 1 nM NIK, average if tested more than once. Type of test: biochemical. A digest of the protocol:
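AlphaScreen detection of phospho-Ser176/180 after 1 nM GST-NIK auto-phosphorylates for 2 h at 25 °C with 5 μM ATP (50 mM Tris pH 7.5, 0.7% DMSO). IC50s come from sigmoidal curves of % inhibition against log dose, using enzyme-free, ATP-free low controls and full-activity high controls.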

Test [2] relates to p-IKKa levels in L363 (NIK translocated multiple myeloma) cells. Kind of test: Effect of compounds on p-IKKa levels in L363 (NIK translocated multiple myeloma) cells (AlphaLISA SureFire Ultra p-IKKa Ser176/180). Type of test: cell-based, human. The conditions noted are these: Homo sapiens, L-363, p-IKKa levels in L363 cells; average if tested more than once; read-out: Assay 2 IC50. In outline:
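Phospho-IKKa (Ser176/180) in lysates quantified by AlphaLISA after 6 h compound exposure, 11-point threefold dilutions, 0.3% DMSO. L363 cells were pre-stimulated overnight and assayed with 250 ng/ml BAFF and 10 μM MG132; % inhibition fitted sigmoidally for IC50, duplicate curves.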

Sequence of Recombinant Human NF-kappaB-Inducing Kinase (NIK/MAP3K14) (Q99558 whole entry): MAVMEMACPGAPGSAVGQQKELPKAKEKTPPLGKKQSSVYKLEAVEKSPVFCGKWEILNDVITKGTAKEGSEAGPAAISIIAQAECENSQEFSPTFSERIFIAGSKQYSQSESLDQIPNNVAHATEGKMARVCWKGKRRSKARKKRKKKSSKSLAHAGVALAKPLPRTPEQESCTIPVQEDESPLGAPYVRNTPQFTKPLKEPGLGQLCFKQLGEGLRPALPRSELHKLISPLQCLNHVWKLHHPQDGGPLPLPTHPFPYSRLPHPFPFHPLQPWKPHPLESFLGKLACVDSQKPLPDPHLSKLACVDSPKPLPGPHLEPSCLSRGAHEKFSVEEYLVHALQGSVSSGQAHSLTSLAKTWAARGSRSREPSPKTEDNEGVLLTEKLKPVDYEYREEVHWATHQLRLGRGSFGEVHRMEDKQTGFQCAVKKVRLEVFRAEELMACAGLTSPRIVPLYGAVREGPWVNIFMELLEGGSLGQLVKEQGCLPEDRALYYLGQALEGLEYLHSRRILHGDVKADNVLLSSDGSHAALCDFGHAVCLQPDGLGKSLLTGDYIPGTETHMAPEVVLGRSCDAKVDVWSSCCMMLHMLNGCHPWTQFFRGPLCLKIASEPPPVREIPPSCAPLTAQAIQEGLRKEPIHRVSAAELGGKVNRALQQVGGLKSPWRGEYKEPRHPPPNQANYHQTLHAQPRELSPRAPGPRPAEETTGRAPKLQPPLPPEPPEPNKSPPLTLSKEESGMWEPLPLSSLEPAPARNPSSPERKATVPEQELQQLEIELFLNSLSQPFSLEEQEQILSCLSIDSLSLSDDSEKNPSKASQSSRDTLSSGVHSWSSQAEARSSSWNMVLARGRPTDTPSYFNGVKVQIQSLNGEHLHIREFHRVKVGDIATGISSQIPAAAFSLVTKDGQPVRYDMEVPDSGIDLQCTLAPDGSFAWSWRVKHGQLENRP

For `Cc1ncc(CNc2nccc(-c3csc(-c4cccc([C@]5(O)CCN(C)C5=O)c4)n3)n2)o1` [Example 110, (R)-3-hydroxy-1-methyl-3-(3-(4-(2-(((2-methyloxazol-5-yl)methyl)amino)pyrimidin-4-yl)thiazol-2-yl)phenyl)pyrrolidin-2-one], the half-inhibitory concentration (IC50) is below 0.1 µM in test [1] and above 0.501 µM in test [2].

On to `CN1CC[C@@](O)(c2cccc(-c3nc(-c4ccnc(NCc5ncco5)n4)cs3)c2)C1=O` [Example 111, (R)-3-hydroxy-1-methyl-3-(3-(4-(2-((oxazol-2-ylmethyl)amino)pyrimidin-4-yl)thiazol-2-yl)phenyl)pyrrolidin-2-one], for which the figures for the IC50 in test [1] and in test [2] were below 0.1 µM and above 0.501 µM, respectively.

As for `CC(Nc1nccc(-c2csc(-c3cccc([C@]4(O)CCN(C)C4=O)c3)n2)n1)c1ccn(C)n1` (stereo partly drawn) [Example 112, (R)-3-hydroxy-1-methyl-3-(3-(4-(2-(((R,S)-1-(1-methyl-1H-pyrazol-3-yl)ethyl)amino)pyrimidin-4-yl)thiazol-2-yl)phenyl)pyrrolidin-2-one], the values for the IC50 in test [1] and in test [2] were below 0.1 µM and above 0.501 µM, respectively.

With `Cc1cc(CNc2nccc(-c3csc(-c4cccc([C@]5(O)CCN(C)C5=O)c4)n3)n2)n[nH]1` [Example 113, (R)-3-hydroxy-1-methyl-3-(3-(4-(2-(((3-methyl-1H-pyrazol-5-yl)methyl)amino)pyrimidin-4-yl)thiazol-2-yl)phenyl)pyrrolidin-2-one], the IC50 in test [1] is below 0.1 µM; in test [2], above 0.501 µM.

As to `Cc1ccnc(CNc2nccc(-c3csc(-c4cccc([C@]5(O)CCN(C)C5=O)c4)n3)n2)n1` [Example 114, (R)-3-hydroxy-1-methyl-3-(3-(4-(2-(((4-methylpyrimidin-2-yl)methyl)amino)pyrimidin-4-yl)thiazol-2-yl)phenyl)pyrrolidin-2-one], the figures for the IC50 in test [1] and in test [2] were 0.1 to 0.5 µM and above 0.501 µM, respectively.

For `CN1CC[C@@](O)(c2cccc(-c3nc(-c4ccnc(NC5[C@@H]6COC[C@@H]56)n4)cs3)c2)C1=O` (stereo partly drawn) [Example 115, (R)-3-(3-(4-(2-(((1R,5R)-3-oxabicyclo[3.1.0]hexan-6-yl)amino)pyrimidin-4-yl)thiazol-2-yl)phenyl)-3-hydroxy-1-methylpyrrolidin-2-one], the values for the half-inhibitory concentration (IC50) in test [1] and in test [2] were 0.1 to 0.5 µM and above 0.501 µM, respectively.

Regarding `CC(C)Cn1cnc(Nc2nccc(-c3csc(-c4cccc([C@]5(O)CCN(C)C5=O)c4)n3)n2)c1` [Example 116, (R)-3-hydroxy-3-(3-(4-(2-((1-isobutyl-1H-imidazol-4-yl)amino)pyrimidin-4-yl)thiazol-2-yl)phenyl)-1-methylpyrrolidin-2-one], the results for the IC50 in test [1] and in test [2] were below 0.1 µM and above 0.501 µM, respectively.

For the compound `CN1CC[C@@](O)(c2cccc(-c3nc(-c4ccnc(Nc5cn(CCF)cn5)n4)cs3)c2)C1=O` [Example 117, (R)-3-(3-(4-(2-((1-(2-fluoroethyl)-1H-imidazol-4-yl)amino)pyrimidin-4-yl)thiazol-2-yl)phenyl)-3-hydroxy-1-methylpyrrolidin-2-one], the IC50 is below 0.1 µM in test [1] and 0.1 to 0.5 µM in test [2].

For the compound `Cc1c(CNc2nccc(-c3csc(-c4cccc([C@]5(O)CCN(C)C5=O)c4)n3)n2)cnn1C` [Example 118, (R)-3-(3-(4-(2-(((1,5-dimethyl-1H-pyrazol-4-yl)methyl)amino)pyrimidin-4-yl)thiazol-2-yl)phenyl)-3-hydroxy-1-methylpyrrolidin-2-one], the figures for the IC50 in test [1] and in test [2] were below 0.1 µM and above 0.501 µM, respectively.

Turning to `CC(Nc1nccc(-c2csc(-c3cccc([C@]4(O)CCN(C)C4=O)c3)n2)n1)c1ccnn1C` (stereo partly drawn) [Example 119, (R)-3-hydroxy-1-methyl-3-(3-(4-(2-(((R,S)-1-(1-methyl-1H-pyrazol-5-yl)ethyl)amino)pyrimidin-4-yl)thiazol-2-yl)phenyl)pyrrolidin-2-one], the results for the IC50 in test [1] and in test [2] were below 0.1 µM and 0.1 to 0.5 µM, respectively.

In the case of `CN1CC[C@@](O)(c2cccc(-c3nc(-c4ccnc(NC5CCN(c6cnn(C)c6)C5)n4)cs3)c2)C1=O` (stereo partly drawn) [Example 120, (R)-3-hydroxy-1-methyl-3-(3-(4-(2-(((R,S)-1-(1-methyl-1H-pyrazol-4-yl)pyrrolidin-3-yl)amino)pyrimidin-4-yl)thiazol-2-yl)phenyl)pyrrolidin-2-one], the IC50 in test [1] is 0.1 to 0.5 µM; in test [2], above 0.501 µM.

Turning to `CC(Nc1nccc(-c2csc(-c3cccc([C@]4(O)CCN(C)C4=O)c3)n2)n1)c1cnn(C)c1` (stereo partly drawn) [Example 121, (R)-3-hydroxy-1-methyl-3-(3-(4-(2-(((R,S)-1-(1-methyl-1H-pyrazol-4-yl)ethyl)amino)pyrimidin-4-yl)thiazol-2-yl)phenyl)pyrrolidin-2-one], the half-maximal inhibitory concentration (IC50) in test [1] is below 0.1 µM; in test [2] it was 0.1 to 0.5 µM.

In the case of `CN1CC[C@@](O)(c2cccc(-c3nc(-c4ccnc(NC[C@@H]5CCCO5)n4)cs3)c2)C1=O` [Example 122, (R)-3-hydroxy-1-methyl-3-(3-(4-(2-((((S)-tetrahydrofuran-2-yl)methyl)amino)pyrimidin-4-yl)thiazol-2-yl)phenyl)pyrrolidin-2-one], the IC50 in test [1] was below 0.1 µM; in test [2] it was above 0.501 µM.

As for `CN1CC[C@@](O)(c2cccc(-c3nc(-c4ccnc(NC5CCCn6nccc65)n4)cs3)c2)C1=O` (stereo partly drawn) [Example 123, (R)-3-hydroxy-1-methyl-3-(3-(4-(2-(((R,S)-4,5,6,7-tetrahydropyrazolo[1,5-a]pyridin-4-yl)amino)pyrimidin-4-yl)thiazol-2-yl)phenyl)pyrrolidin-2-one], the IC50 in test [1] was below 0.1 µM; in test [2], above 0.501 µM.

For `CN1CC[C@@](O)(c2cccc(-c3nc(-c4ccnc(Nc5cn(C6CCC6)cn5)n4)cs3)c2)C1=O` [Example 124, (R)-3-(3-(4-(2-((1-cyclobutyl-1H-imidazol-4-yl)amino)pyrimidin-4-yl)thiazol-2-yl)phenyl)-3-hydroxy-1-methylpyrrolidin-2-one], the IC50 in test [1] is below 0.1 µM; in test [2] it was above 0.501 µM.

`CN1CC[C@@](O)(c2cccc(-c3nc(-c4ccnc(Nc5cn(CC6CCC6)cn5)n4)cs3)c2)C1=O` [Example 125, (R)-3-(3-(4-(2-((1-(cyclobutylmethyl)-1H-imidazol-4-yl)amino)pyrimidin-4-yl)thiazol-2-yl)phenyl)-3-hydroxy-1-methylpyrrolidin-2-one]: the values for the IC50 in test [1] and in test [2] were below 0.1 µM and above 0.501 µM, respectively.

On to `CN1CC[C@@](O)(c2cccc(-c3csc(-c4ccnc(NC5COC5)n4)n3)c2)C1=O` [Example 128, (R)-3-hydroxy-1-methyl-3-(3-(2-(2-(oxetan-3-ylamino)pyrimidin-4-yl)thiazol-4-yl)phenyl)pyrrolidin-2-one], for which the 50% inhibitory concentration (IC50) in test [1] was below 0.1 µM; in test [2], 0.1 to 0.5 µM.

On to `CN1CC[C@@](O)(c2cccc(-c3nc(-c4ccnc(NC5CCC5)n4)cs3)c2)C1=O` [Example 131, (R)-3-(3-(4-(2-(cyclobutylamino)pyrimidin-4-yl)thiazol-2-yl)phenyl)-3-hydroxy-1-methylpyrrolidin-2-one], for which the concentration for half-maximal inhibition (IC50) in test [1] is below 0.1 µM; in test [2], above 0.501 µM.

Turning to `CN1CC[C@@](O)(c2cccc(-c3ccn(-c4ccnc(NC5COC5)n4)n3)c2)C1=O` [Example 132, (R)-3-hydroxy-1-methyl-3-(3-(1-(2-(oxetan-3-ylamino)pyrimidin-4-yl)-1H-pyrazol-3-yl)phenyl)pyrrolidin-2-one], the IC50 was below 0.1 µM in test [1] and 0.1 to 0.5 µM in test [2].

Take `CN1CC[C@@](O)(c2cccc(-c3nc(-c4ccnc(NC5CC5)n4)cs3)c2)C1=O` [Example 137, (R)-3-(3-(4-(2-(cyclopropylamino)pyrimidin-4-yl)thiazol-2-yl)phenyl)-3-hydroxy-1-methylpyrrolidin-2-one]: the 50% inhibitory concentration (IC50) in test [1] is below 0.1 µM; in test [2], above 0.501 µM.

In the case of `Cc1nn(C(F)F)cc1Nc1nccc(-c2csc(-c3cccc([C@]4(O)CCN(C)C4=O)c3)n2)n1` [Example 140, (R)-3-(3-(4-(2-((1-(difluoromethyl)-3-methyl-1H-pyrazol-4-yl)amino)pyrimidin-4-yl)thiazol-2-yl)phenyl)-3-hydroxy-1-methylpyrrolidin-2-one], the IC50 in test [1] and in test [2] was below 0.1 µM throughout.

Regarding `CN1CC[C@@](O)(c2cccc(-c3nc(-c4ccnc(Nc5cnn(CC(F)F)c5)n4)cs3)c2)C1=O` [Example 141, (R)-3-(3-(4-(2-((1-(2,2-difluoroethyl)-1H-pyrazol-4-yl)amino)pyrimidin-4-yl)thiazol-2-yl)phenyl)-3-hydroxy-1-methylpyrrolidin-2-one], the IC50 in test [1] and in test [2] was below 0.1 µM in each case.

For `Cc1nccc(Nc2nccc(-c3csc(-c4cccc([C@]5(O)CCN(C)C5=O)c4)n3)n2)n1` [Example 159, (R)-3-Hydroxy-1-methyl-3-(3-(4-(2-((2-methylpyrimidin-4-yl)amino)pyrimidin-4-yl)thiazol-2-yl)phenyl)pyrrolidin-2-one], the values for the IC50 in test [1] and in test [2] were below 0.1 µM and above 0.501 µM, respectively.

On to `CN1CC[C@@](O)(c2cccc(-c3nc(-c4ccnc(Nc5ccnn5C5COC5)n4)cs3)c2)C1=O` [Example 160, (R)-3-Hydroxy-1-methyl-3-(3-(4-(2-((1-(oxetan-3-yl)-1H-pyrazol-5-yl)amino)pyrimidin-4-yl)thiazol-2-yl)phenyl)pyrrolidin-2-one], for which the results for the IC50 in test [1] and in test [2] were below 0.1 µM and above 0.501 µM, respectively.

As for `COc1cccnc1Nc1nccc(-c2csc(-c3cccc([C@]4(O)CCN(C)C4=O)c3)n2)n1` [Example 161, (R)-3-Hydroxy-3-(3-(4-(2-((3-methoxypyridin-2-yl)amino)pyrimidin-4-yl)thiazol-2-yl)phenyl)-1-methylpyrrolidin-2-one], the IC50 in test [1] and in test [2] was above 0.501 µM in each case.
